Reference: US9394544B2, “Ameliorating oxidative stress in neurodegenerative disease via Nox1 targeting” (University of Central Florida Research Foundation, Inc., priority 2013, dated 2016)

Experiments:
[1] = system: differentiated human dopaminergic cells (ReNcell VM); assay: α-Synuclein and Nox1 levels in differentiated ReNcell VM human dopaminergic neurons exposed to PQ; assay type: cell-based
Source text: For the in vitro experiments on human dopaminergic neurons, human mesencephalic neuronal progenitor cell line available from Millipore (catalog number SCC008) was used. The specialty of these cells is that they are isolated from fetal human ventral mesencephalic region and subsequently immortalized by introduction of v-myc. The cells can readily differentiate into dopaminergic neurons upon withdrawal of growth factors (Millipore). The culture method was followed as indicated by the company with little modifications. Briefly, the cells were allowed to grow on laminin-coated (20 μg/ml) dishes in DMEM/F12-containing medium with B27 supplement, glutamax, heparin (10 U/ml), and gentamicin (50 μg/ml). This medium is called maintenance medium. Cell division was allowed by addition of the two growth factors in the medium viz., basic fibroblast growth factor (bFGF) and epidermal growth factor (EGF), both at a concentration of 20 ng/ml. […]
After each respective treatment, cells were fixed in 4% paraformaldehyde (PFA) for 20 min and permeabilized with 0.1% Triton X-100 in PBS for 10 min. […] For quantification of Flag^+ and α-synuclein^+ cells, >30 different fields per coverslip were analyzed on a Nikon inverted fluorescent microscope under a 20× and 40× magnification.

[2] = system: Flag-tagged wild-type (WT) α-synuclein; assay: Aggregation of overexpressed flag-tagged WT α-synuclein in N27 cells exposed to PQ; assay type: cell-based, rat
Description: Human α-synuclein was cloned into the p3xFLAG-myc-CMV-23 expression vector (Sigma) for N- and C-terminal tagging with FLAG and Myc, respectively. For transient overexpression of tagged α-synuclein, N27 cells were plated onto 24-well plates with coverslips at 0.5×10^5 cells per well 1 d before transfection. The next day, cells were transiently transfected with FLAG-WTsyn-myc. Briefly, 1 μg of plasmid DNA was mixed with 6 μl of Lipofectamine 2000 (Invitrogen) in 100 μl of Opti-MEM for 20 min before addition in the culture. After 6 h of incubation, the culture medium was changed and 100 μl of Nox1 shRNA/LVX viral particle was added to each well. Cells were maintained for an additional 36 h before treatment with 800 μM or 1000 μM PQ for 8 and 24 h.
After each respective treatment, cells were fixed in 4% paraformaldehyde (PFA) for 20 min and permeabilized with 0.1% Triton X-100 in PBS for 10 min. Blocking was performed by incubation with 20% goat or donkey serum in PBS containing 0.1% Tween 20 for 90 min at room temperature. […] For quantification of Flag^+ and α-synuclein^+ cells, >30 different fields per coverslip were analyzed on a Nikon inverted fluorescent microscope under a 20× and 40× magnification.

C[n+]1ccc(-c2cc[n+](C)cc2)cc1 [PQ, paraquat]
Nox1 level (immunocytochemistry, Western blot) ([1]; 8 h PQ): highly elevated | α-synuclein level ([1]; PQ 800 or 1000 μM, 8 and 24 h): increases over time | increase of flag-tagged WT α-synuclein aggregation vs control cells [2]: 2.5 fold
